Measurements from PMC8957602 (Cancer chemotherapy and pharmacology, 2022).
Values joined by “and” are separate entries in the source; they are usually repeats but may differ in a detail not shown here. Equal entries are not always repeated. Where two headings read alike, the source gives them in different places.

Key:
[1] = adults with FLT3 mutant AML, ref [26], cited from earlier work
[2] = described as weak acid drug; cited from earlier work
[3] = ref [18], cited from earlier work
[4] = assay type: in vivo, human; conditions: despite increased exposure with acid reducer co-treatment
[5] = ref [11], cited from earlier work
[6] = for AUC(0-t) / clearance: human, serum, oral; for AUC(0-t): 170 mg/m2, Steady state AUC0–24h, after 170 mg/m^2; for clearance: Mean clearance
[7] = test system: human cytochrome CYP3A enzyme family; conditions: in vitro; ref unpublished in vitro data; cited from earlier work
CYP3A4 = conditions: ref [31]; cited from earlier work
[8] = before including any covariates
[9] = before inclusion of significant covariates
[10] = final model with covariates, Estimate (RSE%)
[11] = final model, standard deviation, Estimate (RSE%)
[12] = standard deviation, 500 bootstrap replicates

CC1(COc2ccc3c(c2)ncn3-c2ccc3cccc(N4CCC(N)CC4)c3n2)COC1 [crenolanib]
Mean clearance ([1]; similar between day 1 and day 15): ~ 60 L/h
Drug accumulation after repeated doses [1]: minimal drug accumulation
Terminal half-life [1]: 6.8 h
pKa [2]: ~ 9.8
Maximum tolerated dosage ([3]; oral once daily): 170 mg/m^2/d
Association of higher AUC with toxicities [3]: not associated with more frequent or severe toxicities
Tolerability of therapy [4]: well-tolerated
Terminal half-life ([5]; adults with solid tumors, 100–340 mg once daily, similar across all dose levels, [15]): 14 ± 4.2 h
Mean (CV%) steady state AUC0–72h ([5]; adults, 280 mg once daily (approx. 168 mg/m^2)): 25,928 (92%) h·nM
Tolerability ([5]; adults, 100–340 mg once daily, [15]): well tolerated
AR coefficient on V1/F βAR-V, non-parametric bootstraps mean ([6]; 500 bootstrap replicates): −0.477
Absorption lag time Tlag, non-parametric bootstraps mean ([6]; 500 bootstrap replicates): 0.547 h
Absorption rate constant ka, non-parametric bootstraps mean ([6]; 500 bootstrap replicates): 0.192 h⁻¹
Age coefficient on ka βAge, non-parametric bootstraps mean ([6]; 500 bootstrap replicates): −0.0403
Central clearance CL/F, non-parametric bootstraps mean ([6]; 500 bootstrap replicates): 42.0 L/h
Central volume V1/F, non-parametric bootstraps mean ([6]; 500 bootstrap replicates): 54.0 L
Peripheral volume V2/F, non-parametric bootstraps mean ([6]; 500 bootstrap replicates): 194 L
Residual proportional error, non-parametric bootstraps mean ([6]; 500 bootstrap replicates): 0.306
CL/F population estimate [6, 8]: 20.4 L/h
Q/F population estimate [6, 8]: 4.47 L/h
Tlag population estimate [6, 8]: 0.59 h
V1/F population estimate [6, 8]: 34.6 L
V2/F population estimate [6, 8]: 316 L
ka population estimate [6, 8]: 0.13 h⁻¹
Inter-occasion variability of CL/F [6, 9]: 0.568
Inter-occasion variability of V1/F [6, 9]: 0.956
Absorption lag time Tlag, population estimate [6, 10]: 0.525 (14.4) h
Absorption rate constant ka, population estimate [6, 10]: 0.191 (10.4) /h
Peripheral volume V2/F, population estimate ([6]; final model, Estimate (RSE%)): 412 (86.7) L
Residual proportional error ([6]; final model, Estimate (RSE%)): 0.304 (4.44)
AR coefficient on V1/F βAR-V ([6]; final model, acid reducer concomitant treatment, Estimate (RSE%)): −0.516 (42.3)
Age coefficient on ka βAge ([6]; final model, exponential model, Estimate (RSE%)): −0.0404 (20.5)
Inter-occasion variability (IOV) of absorption lag time Tlag [6, 11]: 0.645 (18.3)
Inter-patient variability (IIV) of absorption lag time Tlag [6, 11]: 0.524 (27.7)
Inter-patient variability (IIV) of peripheral clearance Q/F [6, 11]: 0.536 (20.2)
Central volume V1/F, population estimate ([6]; final model, typical patient, no acid reducer, Estimate (RSE%)): 54.3 L and 54.3 (18.4) L
Lower V1/F in patients receiving concomitant acid reducers ([6]; histamine H2 antagonists or proton pump inhibitors, p=0.018): ~1.7 fold
AUC(0-t) ([6]; mean): 20.7 µM·h
AUC(0-t) ([6]; range): 9.48 to 68.5 µM·h
clearance ([6]; all patients): 642 mL/min
clearance ([6]; with acid reducers): 435 mL/min
clearance ([6]; without acid reducers): 980 mL/min
Accumulation at steady state ([6]; in vivo): minimal accumulation
IIV of absorption lag time Tlag, non-parametric bootstraps mean [6, 12]: 0.496
IIV of absorption rate constant ka, non-parametric bootstraps mean [6, 12]: 0.091
IIV of central volume V1/F, non-parametric bootstraps mean [6, 12]: 0.182
IOV of absorption lag time Tlag, non-parametric bootstraps mean [6, 12]: 0.591
IOV of central volume V1/F, non-parametric bootstraps mean [6, 12]: 0.860
Metabolizing enzyme [7]: primarily metabolized by human cytochrome CYP3A enzyme family

COc1ccc2[nH]c([S+]([O-])Cc3ncc(C)c(OC)c3C)nc2c1 (stereo not shown) [omeprazole]
CYP3A4 inhibition (CYP3A4): weak CYP3A4 inhibitors

COc1ccnc(C[S+]([O-])c2nc3ccc(OC(F)F)cc3[nH]2)c1OC (stereo not shown) [pantoprazole]
CYP3A4 inhibition (CYP3A4): weak CYP3A4 inhibitors

CNC(=C[N+](=O)[O-])NCCSCc1ccc(CN(C)C)o1 [ranitidine]
CYP3A4 inhibition (CYP3A4): weak CYP3A4 inhibitors
